This is an account of results in patent US20260008758A1, “LINEAR DIPEPTIDYL PEPTIDASE 1 INHIBITORS AND USES THEREOF” (Insmed Incorporated, priority 2024, published 2026).

SMILES strings stand for the structures. Like-named read-outs stand apart in the source and are kept apart here.

Test [1] deals with active mouse DPP1 enzyme (Mus musculus (Mouse), UniProt P97821). The experiment in a line: Mouse DPP1 enzyme IC50 assay. It is filed as biochemical. Particulars: active mouse DPP1, H-Gly-Arg-AMC substrate 400 μM. On the procedure:
25 μL of compound in Assay Buffer plus 5% DMSO was first added to 50 μL of active mouse DPP1 enzyme at a concentration of 62.5 pg/μL and allowed to pre-incubate for 10 minutes at 37° C. after which 50 μL of 1000 μM H-Gly-Arg-AMC substrate (Bachem; St. Torrance, CA) was added, giving final substrate concentration of 400 μM and a final DMSO concentration of 1%. Substrate cleavage was measured for 90 minutes at 37° C., with fluorescence at Excitation/Emission 350/450 nm measured every 5 minutes. DPP1 concentration was interpolated based on its activity relative to a standard curve of recombinant active mouse DPP1 enzyme. IC50 values for each compound were calculated via the XLFit (IDBS Version 5.3.1.3) Add-On to Microsoft Excel using the four parameter fit equation y=(A+((B-A)/(1+((C/x)^D)))), which appears as equation number 205 (4 Parameter Logistic Model or Sigmoidal Dose-Response Model) in XLFit. Default constraints were used for each Parameter.

Test [2] concerns the target human DPP1 enzyme (Homo sapiens (Human), UniProt P53634). The experiment in a line: Human DPP1 enzyme IC50 assay. It is filed as biochemical. The procedure, abridged: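 Fluorogenic readout (350/450 nm, every 5 min over 90 min, 37°C) of H-Gly-Arg-AMC cleavage at 400 μM final substrate. Compounds met activated DPP1 first for a 10-min 37°C pre-incubation in MES buffer pH 6.0 with DTT, 1% DMSO final. Four-parameter sigmoidal fit gave IC50.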

Test [3] has as its target DPP1 in HL-60 cells (Homo sapiens (Human), UniProt P53634). The experiment in a line: DPP1 Cell IC50 assay. The settings on record: H-Gly-Phe-AFC substrate, 60 min pre-incubation. Type of test: cell-based. In a few lines: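 HL-60 cells (5×10^5 live cells/mL in PBS) were pre-incubated with compound in 0.5% DMSO for 60 min at 37 °C, 5% CO2, with shaking, then given 500 μM H-Gly-Phe-AFC solution for 30 min. Fluorescence was read at 400/505 nm. % inhibition was taken against vehicle wells, and IC50 came from a four-parameter logistic fit.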

Where [4] appears, read: recombinant human DPP1, H-Gly-Arg-AMC substrate 400 μM.

Sequence of DPP1 in HL-60 cells (P53634 25-134): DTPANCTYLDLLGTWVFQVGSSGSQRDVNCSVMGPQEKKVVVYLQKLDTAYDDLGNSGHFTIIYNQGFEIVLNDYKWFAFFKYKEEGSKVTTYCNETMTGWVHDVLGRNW
Sequence of DPP1 in HL-60 cells (P53634 231-394): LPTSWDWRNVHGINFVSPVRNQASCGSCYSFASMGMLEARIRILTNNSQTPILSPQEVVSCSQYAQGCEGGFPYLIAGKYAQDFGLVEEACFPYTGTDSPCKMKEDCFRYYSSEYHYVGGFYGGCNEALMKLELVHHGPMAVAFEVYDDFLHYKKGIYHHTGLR
Sequence of DPP1 in HL-60 cells (P53634 395-463): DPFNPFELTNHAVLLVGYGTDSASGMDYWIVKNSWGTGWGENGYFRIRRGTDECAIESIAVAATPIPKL
Sequence of human DPP1 enzyme (P53634 25-134): as the sequence (P53634 25-134) above
Sequence of human DPP1 enzyme (P53634 231-394): as the sequence (P53634 231-394) above
Sequence of human DPP1 enzyme (P53634 395-463): as the sequence (P53634 395-463) above
Sequence of active mouse DPP1 enzyme (P97821 25-134): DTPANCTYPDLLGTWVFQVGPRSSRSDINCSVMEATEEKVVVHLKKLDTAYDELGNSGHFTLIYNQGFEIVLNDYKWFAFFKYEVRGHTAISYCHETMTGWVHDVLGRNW
Sequence of active mouse DPP1 enzyme (P97821 231-393): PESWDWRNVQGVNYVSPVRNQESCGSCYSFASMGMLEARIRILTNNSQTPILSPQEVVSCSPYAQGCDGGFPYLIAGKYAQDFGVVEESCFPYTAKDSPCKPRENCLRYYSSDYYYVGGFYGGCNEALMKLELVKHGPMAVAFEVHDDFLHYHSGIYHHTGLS
Sequence of active mouse DPP1 enzyme (P97821 394-462): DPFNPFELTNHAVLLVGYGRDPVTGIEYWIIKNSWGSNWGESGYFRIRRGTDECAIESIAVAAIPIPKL

As usually defined, the IC50 is the concentration that inhibits the measured activity by half. As for `Cn1c(=O)oc2ccc(-c3ccc(C[C@@H](C#N)NC(=O)C[C@@H](N)Cc4ccccc4)cc3)cc21` [Compound 186], the figures for the IC50 in test [1] and in test [2] (setting [4]) were at least 20 nM and at least 15 nM, respectively.

`Cn1c(=O)oc2ccc(-c3ccc(C[C@@H](C#N)NC(=O)CCC(N)=O)cc3)cc21` [Compound 153]: the IC50 in test [1] was at least 20 nM; in test [2] (setting [4]), at least 15 nM.

Take `Cn1c(=O)oc2ccc(-c3ccc(C[C@@H](C#N)NC(=O)CC(N)Cc4ccsc4)cc3)cc21` (some centres unmarked) [Compound 185]: the IC50 in test [1] was at least 20 nM; in test [2] (setting [4]), at least 15 nM.

Consider `CC(O)C(=O)N[C@H](C#N)Cc1ccc(-c2ccc3oc(=O)n(C)c3c2)cc1` (some centres unmarked) [Compound 242], for which the IC50 is at least 20 nM in test [1] and at least 15 nM in test [2] (setting [4]).

For `CC(N)CC(=O)N[C@H](C#N)Cc1ccc(-c2ccc3oc(=O)n(C)c3c2)cc1` (some centres unmarked) [Compound 160], the IC50 in test [1] is at least 20 nM; in test [2] (setting [4]), at least 15 nM.

The molecule `Cn1c(=O)oc2ccc(-c3ccc(C[C@@H](C#N)NC(=O)CCOC(=O)c4cccs4)cc3)cc21` [Compound 244, 2-{[(1S)-1-cyano-2-[4-(3-methyl-2-oxo-1,3-benzoxazol-5-yl)phenyl]ethyl]carbamoyl}ethyl thiophene-2-carboxylate] gave an IC50 in test [1] of at least 20 nM.

Regarding `CN[C@@H](C)C(=O)N[C@H](C#N)Cc1ccc(-c2ccc3oc(=O)n(C)c3c2)cc1` [Compound 154], the IC50 in test [1] is at least 20 nM; in test [2] (setting [4]), at least 15 nM.

Take `CC(O)CNCC(=O)N[C@@H](C#N)Cc1ccc(-c2ccc3oc(=O)n(C)c3c2)cc1` (some centres unmarked) [compound 175]: the results for the IC50 in test [1] and in test [2] (setting [4]) were 5 to 20 nM and at least 15 nM, respectively.

`C=CC[C@H](N)CC(=O)N[C@H](C#N)Cc1ccc(-c2ccc3oc(=O)n(C)c3c2)cc1` [Compound 163]: the IC50 in test [1] is at least 20 nM; in test [2] (setting [4]), at least 15 nM.

On to `Cn1c(=O)oc2ccc(-c3ccc(C[C@@H](C#N)NC(=O)CCC#N)cc3)cc21` [Compound 241], for which the IC50 in test [1] was at least 20 nM; in test [2] (setting [4]), at least 15 nM.

For `Cn1c(=O)oc2ccc(-c3ccc(C[C@@H](C#N)NC(=O)CNC(=O)c4cccs4)cc3)cc21` [Compound 239, N-[(1S)-1-cyano-2-[4-(3-methyl-2-oxo-1,3-benzoxazol-5-yl)phenyl]ethyl]-2-(thiophen-2-ylformamido)acetamide], the IC50 in test [1] was at least 20 nM.

As to `CCN1C(=O)Cc2ccc(-c3ccc(C[C@@H](C#N)NC(=O)[C@@](C)(N)C4CCCC4)cc3)cc21` [Compound 259A, (2S)-2-amino-N-[(1S)-1-cyano-2-[4-(1-ethyl-2-oxo-3H-indol-6-yl)phenyl]ethyl]-2-cyclopentylpropanamide], the IC50 is 1 to 2.5 nM in test [3] and at most 5 nM in test [2] (setting [4]).

`Cn1c(=O)oc2ccc(-c3ccc(C[C@@H](C#N)NC(=O)C(N)Cc4cc[nH]c4)cc3)cc21` (stereo partly drawn) [Compound 208, 2-amino-N-[(1S)-1-cyano-2-[4-(3-methyl-2-oxo-1,3-benzoxazol-5-yl)phenyl]ethyl]-3-(1H-pyrrol-3-yl)propanamide]: the IC50 in test [3] was at least 2.5 nM; in test [2] it was below 5 nM.

`CN(C)C[C@H](O)C(=O)N[C@H](C#N)Cc1ccc(-c2ccc3nnn(C)c3c2)cc1F` [Compound 141, (2S)—N-[(1S)-1-cyano-2-[2-fluoro-4-(3-methyl-1,2,3-benzotriazol-5-yl)phenyl]ethyl]-3-(dimethylamino)-2-hydroxypropanamide]: the IC50 in test [3] fell in the range of 1 to 2.5 nM; in test [2] (setting [4]), 5 to 15 nM.

As to `Cn1c(=O)oc2ccc(-c3ccc(C[C@@H](C#N)NC(=O)C(C)(N)C4CCCC4)cc3)cc21` (stereo partly drawn) [Compound 219, 2-amino-N-[(1S)-1-cyano-2-[4-(3-methyl-2-oxo-1,3-benzoxazol-5-yl)phenyl]ethyl]-2-cyclopentylpropanamide], the IC50 in test [3] is 1 to 2.5 nM; in test [2] (setting [4]), at most 5 nM.

As to `CN(C)C[C@H](O)C(=O)N[C@H](C#N)Cc1ccc(-c2ccc3c(c2)C2(CCN(C4COC4)CC2)OC3)cc1` [Compound 144, (2S)—N-[(1S)-1-cyano-2-{4-[1′-(oxetan-3-yl)-3H-spiro[2-benzofuran-1,4′-piperidin]-6-yl]phenyl}ethyl]-3-(dimethylamino)-2-hydroxypropanamide], the IC50 in test [3] was at least 2.5 nM; in test [2] (setting [4]), at least 15 nM.

Consider `CN(C)C[C@H](O)C(=O)N[C@H](C#N)Cc1ccc(-c2ccc3c(c2)C2(CCN(C4COC4)CC2)OC3)cc1F` [Compound 283, (2S)—N-[(1S)-1-cyano-2-{2-fluoro-4-[1′-(oxetan-3-yl)-3H-spiro[2-benzofuran-1,4′-piperidin]-6-yl]phenyl}ethyl]-3-(dimethylamino)-2-hydroxypropanamide], for which the half-inhibitory concentration (IC50) in test [3] was at least 2.5 nM; in test [2] (setting [4]), 5 to 15 nM.

With `Cn1c(=O)oc2ccc(-c3ccc(C[C@@H](C#N)NC(=O)[C@H](N)[C@H]4CCCO4)cc3)cc21` [Compound 211, (2R)-2-amino-N-[(1S)-1-cyano-2-[4-(3-methyl-2-oxo-1,3-benzoxazol-5-yl)phenyl]ethyl]-2-[(2R)-oxolan-2-yl]acetamide], the IC50 in test [3] was at least 2.5 nM; in test [2] (setting [4]), at least 15 nM.

As to `Cn1c(=O)oc2ccc(-c3ccc(C[C@@H](C#N)NC(=O)[C@H](N)[C@@H]4CCCO4)cc3)cc21` [Compound 213, (2R)-2-amino-N-[(1S)-1-cyano-2-[4-(3-methyl-2-oxo-1,3-benzoxazol-5-yl)phenyl]ethyl]-2-[(2S)-oxolan-2-yl]acetamide], the IC50 in test [3] was at least 2.5 nM; in test [2] (setting [4]), at least 15 nM.

As to `Cn1c(=O)oc2ccc(-c3ccc(C[C@@H](C#N)NC(=O)C4(N)CCCC45CC5)c(F)c3)cc21` (stereo partly drawn) [Compound 273B, (4R)-4-amino-N-[(1S)-1-cyano-2-[2-fluoro-4-(3-methyl-2-oxo-1,3-benzoxazol-5-yl)phenyl]ethyl]spiro[2.4]heptane-4-carboxamide], the IC50 in test [3] is at most 1 nM; in test [2] (setting [4]), at most 5 nM.

With `Cn1c(=O)oc2ccc(-c3ccc(C[C@@H](C#N)NC(=O)[C@@H](N)C4CCCO4)cc3)cc21` (stereo in doubt) [Compound 210, (2S)-2-amino-N-[(1S)-1-cyano-2-[4-(3-methyl-2-oxo-1,3-benzoxazol-5-yl)phenyl]ethyl]-2-[(2S)-oxolan-2-yl]acetamide], the IC50 in test [3] is at least 2.5 nM; in test [2] (setting [4]), 5 to 15 nM.

Take `COCCN(C)CCn1c(=O)oc2ccc(-c3ccc(C[C@@H](C#N)NC(=O)[C@@](C)(N)C4CCCC4)cc3)cc21` [Compound 258A, (2S)-2-amino-N-[(1S)-1-cyano-2-[4-(3-{2-[(2-methoxyethyl)(methyl)amino]ethyl}-2-oxo-1,3-benzoxazol-5-yl)phenyl]ethyl]-2-cyclopentylpropanamide]: the IC50 in test [3] is at least 2.5 nM; in test [2] (setting [4]), at least 15 nM.

Turning to `C[C@@H](N)[C@@H](O)C(=O)N[C@H](C#N)Cc1ccc(-c2ccc3oc(=O)n(C)c3c2)cc1` [Compound 102B], the IC50 in test [3] was at least 2.5 nM; in test [2] (setting [4]), at least 15 nM.

Consider `CN(C)C[C@H](O)C(=O)N[C@H](C#N)Cc1ccc(-c2ccc3cnn(C4CCN(C5COC5)CC4)c3c2)cc1` [Compound 282, (2S)—N-[(1S)-1-cyano-2-(4-{1-[1-(oxetan-3-yl)piperidin-4-yl]indazol-6-yl}phenyl)ethyl]-3-(dimethylamino)-2-hydroxypropanamide], for which the IC50 in test [3] was at least 2.5 nM; in test [2] (setting [4]), at least 15 nM.

`Cn1c(=O)oc2ccc(-c3ccc(C[C@@H](C#N)NC(=O)COC(=O)c4cccs4)cc3)cc21` [Compound 245, (S)-2-((1-cyano-2-(4-(3-methyl-2-oxo-2,3-dihydrobenzo[d]oxazol-5-yl)phenyl)ethyl)amino)-2-oxoethyl thiophene-2-carboxylate] showed an IC50 in test [1] of at least 20 nM.

For `Cn1c(=O)oc2ccc(-c3ccc(C[C@@H](C#N)NC(=O)[C@H](N)CCO)cc3)cc21` [Compound 169, (2R)-2-amino-N-[(1S)-1-cyano-2-[4-(3-methyl-2-oxo-1,3-benzoxazol-5-yl)phenyl]ethyl]-4-hydroxybutanamide], the IC50 in test [3] is at least 2.5 nM; in test [2] (setting [4]), at least 15 nM.

Take `CN(C)C[C@H](O)C(=O)N[C@H](C#N)Cc1ccc(-c2ccc3oc(=O)n(CCN4CCOCC4)c3c2)cc1F` [Compound 142, (2S)—N-[(1S)-1-cyano-2-(2-fluoro-4-{3-[2-(morpholin-4-yl)ethyl]-2-oxo-1,3-benzoxazol-5-yl}phenyl)ethyl]-3-(dimethylamino)-2-hydroxypropanamide]: the IC50 in test [3] was at least 2.5 nM; in test [2] (setting [4]) it was 5 to 15 nM.

As for `CNC[C@H](OC)C(=O)N[C@H](C#N)Cc1ccc(-c2ccc3oc(=O)n(C)c3c2)cc1` [Compound 109, (S)—N—((S)-1-cyano-2-(4-(3-methyl-2-oxo-2,3-dihydrobenzo[d]oxazol-5-yl)phenyl)ethyl)-2-methoxy-3-(methylamino)propanamide], the results for the half-inhibitory concentration (IC50) in test [3] and in test [2] (setting [4]) were at least 2.5 nM and at least 15 nM, respectively.
